Results: ChEMBL document CHEMBL1671637, “Development, stability, and molecular mechanisms of macrolide resistance in Campylobacter jejuni” (2008)
Converted amounts (≈) assume the structure as drawn.

Key:
Campylobacter jejuni [1] = assay: Antimicrobial activity against Campylobacter jejuni DC10 harboring protein L4 G57D mutant by agar dilution method; assay type: functional
Campylobacter jejuni [2] = assay: Antimicrobial activity against Campylobacter jejuni JL306 harboring protein L22 with insertion of amino acid TSH at position 98 selected at 4 to 16 times MIC after 3 to 4 days by agar dilution method; assay type: functional
Campylobacter jejuni [3] = assay: Antimicrobial activity against Campylobacter jejuni JL277 selected at 4 to 16 times MIC after 3 to 4 days by agar dilution method; assay type: functional
Campylobacter jejuni [4] = assay: Antimicrobial activity against Campylobacter jejuni DC2 infected in 15 days old chicken by agar dilution method; assay type: functional
Campylobacter jejuni [5] = assay: Antimicrobial activity against Campylobacter jejuni DC1 by agar dilution method; assay type: functional
Campylobacter jejuni [6] = assay: Antimicrobial activity against Campylobacter jejuni DC17 harboring protein L4 G57D mutant by agar dilution method
Campylobacter jejuni [7] = assay: Antimicrobial activity against Campylobacter jejuni JL302 harboring protein L22 with insertion of amino acid TSH at position 98 selected at 4 to 16 times MIC after 3 to 4 days by agar dilution method; assay type: functional
Campylobacter jejuni [8] = assay: Antimicrobial activity against Campylobacter jejuni DC21 harboring protein L4 G74D mutant by agar dilution method; assay type: functional
Campylobacter jejuni [9] = assay: Antimicrobial activity against Campylobacter jejuni DC18 harboring protein L4 G74D mutant by agar dilution method; assay type: functional
Campylobacter jejuni [10] = assay: Antimicrobial activity against Campylobacter jejuni JL287 harboring 23S rRNA A2074C mutant selected at 4 to 16 times MIC after 3 to 4 days by agar dilution method; assay type: functional
Campylobacter jejuni [11] = assay: Antimicrobial activity against Campylobacter jejuni DC27 harboring protein L4 G74D mutant by agar dilution method; assay type: functional
Campylobacter jejuni [12] = assay: Antimicrobial activity against Campylobacter jejuni JL301 harboring protein L22 with insertion of amino acid TSH at position 98 selected at 4 to 16 times MIC after 3 to 4 days by agar dilution method; assay type: functional
Campylobacter jejuni [13] = assay: Antimicrobial activity against Campylobacter jejuni DC2 infected in 3 days old chicken by agar dilution method; assay type: functional
Campylobacter jejuni [14] = assay: Antimicrobial activity against Campylobacter jejuni JL279 selected at 4 to 16 times MIC after 3 to 4 days by agar dilution method; assay type: functional
Campylobacter jejuni [15] = assay: Antimicrobial activity against Campylobacter jejuni DC24 harboring protein L4 G74D mutant by agar dilution method; assay type: functional
Campylobacter jejuni [16] = assay: Antimicrobial activity against Campylobacter jejuni DC35 harboring protein L4 G74D mutant by agar dilution method; assay type: functional
Campylobacter jejuni [17] = assay: Antimicrobial activity against Campylobacter jejuni DC12 harboring protein L4 G74D mutant by agar dilution method; assay type: functional
Campylobacter jejuni [18] = assay: Antimicrobial activity against Campylobacter jejuni DC36 harboring protein L4 G74D mutant by agar dilution method; assay type: functional
Campylobacter jejuni [19] = assay: Antimicrobial activity against Campylobacter jejuni JL299 harboring protein L22 with insertion of amino acid TSH at position 98 selected at 4 to 16 times MIC after 3 to 4 days by agar dilution method; assay type: functional
Campylobacter jejuni [20] = assay: Antimicrobial activity against Campylobacter jejuni DC31 harboring 23S rRNA A2074G mutant by agar dilution method; assay type: functional
Campylobacter jejuni [21] = assay: Antimicrobial activity against Campylobacter jejuni DC22 harboring protein L4 G74D mutant by agar dilution method; assay type: functional
Campylobacter jejuni [22] = assay: Antimicrobial activity against Campylobacter jejuni JL294 selected at 4 to 16 times MIC after 3 to 4 days by agar dilution method; assay type: functional
Campylobacter jejuni [23] = assay: Antimicrobial activity against Campylobacter jejuni DC28 harboring protein L4 G74D mutant by agar dilution method; assay type: functional
Campylobacter jejuni [24] = assay: Antimicrobial activity against Campylobacter jejuni DC2 harboring protein L4 G74D mutant by agar dilution method; assay type: functional
Campylobacter jejuni [25] = assay: Antimicrobial activity against Campylobacter jejuni DC11 by agar dilution method; assay type: functional
Campylobacter jejuni [26] = assay: Antimicrobial activity against Campylobacter jejuni JL308 harboring protein L22 with insertion of amino acid TSH at position 98 selected at 4 to 16 times MIC after 3 to 4 days by agar dilution method; assay type: functional
Campylobacter jejuni [27] = assay: Antimicrobial activity against Campylobacter jejuni DC20 harboring protein L4 G74D mutant by agar dilution method; assay type: functional
Campylobacter jejuni [28] = assay: Antimicrobial activity against Campylobacter jejuni JL295 selected at 2 ug/ml after 3 to 4 days by agar dilution method; assay type: functional
Campylobacter jejuni [29] = assay: Antimicrobial activity against Campylobacter jejuni DC16 harboring protein L4 G74D mutant by agar dilution method; assay type: functional
Campylobacter jejuni [30] = assay: Antimicrobial activity against Campylobacter jejuni JL276 selected at 4 ug/ml after 3 to 4 days by agar dilution method; assay type: functional
Campylobacter jejuni [31] = assay: Antimicrobial activity against Campylobacter jejuni JL307 harboring protein L22 with insertion of amino acid TSH at position 98 selected at 4 to 16 times MIC after 3 to 4 days by agar dilution method; assay type: functional
Campylobacter jejuni [32] = assay: Antimicrobial activity against Campylobacter jejuni DC30 by agar dilution method; assay type: functional
Campylobacter jejuni [33] = assay: Antimicrobial activity against Campylobacter jejuni JL293 selected at 4 to 16 times MIC after 3 to 4 days by agar dilution method; assay type: functional
Campylobacter jejuni [34] = assay: Antimicrobial activity against Campylobacter jejuni JL300 harboring protein L22 with insertion of amino acid TSH at position 98 selected at 4 to 16 times MIC after 3 to 4 days by agar dilution method; assay type: functional
Campylobacter jejuni [35] = assay: Antimicrobial activity against Campylobacter jejuni DC3 harboring 23S rRNA A2074G mutant by agar dilution method; assay type: functional
Campylobacter jejuni [36] = assay: Antimicrobial activity against Campylobacter jejuni DC26 infected in 15 days old chicken by agar dilution method in presence of food with tylosin; assay type: functional
Campylobacter jejuni [37] = assay: Antimicrobial activity against Campylobacter jejuni DC13 harboring protein L4 G74D mutant by agar dilution method; assay type: functional
Campylobacter jejuni [38] = assay: Antimicrobial activity against Campylobacter jejuni DC34 harboring protein L4 G74D mutant by agar dilution method; assay type: functional

CC[C@H]1OC(=O)[C@H](C)[C@@H](O[C@H]2C[C@@](C)(OC)[C@@H](O)[C@H](C)O2)[C@H](C)[C@@H](O[C@@H]2O[C@H](C)C[C@H](N(C)C)[C@H]2O)[C@](C)(O)C[C@@H](C)C(=O)[C@H](C)[C@@H](O)[C@]1(C)O [ERYTHROMYCIN]
MIC (Campylobacter jejuni [1]): 16 µg/mL (≈ 21.8 µM)
MIC (Campylobacter jejuni [2]): 64 µg/mL (≈ 87.2 µM)
MIC (Campylobacter jejuni [3]): 8 µg/mL (≈ 10.9 µM)
MIC (Campylobacter jejuni [4]): 32 µg/mL (≈ 43.6 µM)
MIC (Campylobacter jejuni [5]): 8 µg/mL (≈ 10.9 µM)
MIC (Campylobacter jejuni [6]): 8 µg/mL (≈ 10.9 µM)
MIC (Campylobacter jejuni [7]): 512 µg/mL (≈ 698 µM)
MIC (Campylobacter jejuni [8]): 32 µg/mL (≈ 43.6 µM)
MIC (Campylobacter jejuni [9]): 16 µg/mL (≈ 21.8 µM)
MIC (Campylobacter jejuni [10]): > 512 µg/mL
MIC (Campylobacter jejuni [11]): 64 µg/mL (≈ 87.2 µM)
MIC (Campylobacter jejuni [12]): 512 µg/mL (≈ 698 µM)
MIC (Campylobacter jejuni [13]): 32 µg/mL (≈ 43.6 µM)
MIC (Campylobacter jejuni [14]): 8 µg/mL (≈ 10.9 µM)
MIC (Campylobacter jejuni [15]): 32 µg/mL (≈ 43.6 µM)
MIC (Campylobacter jejuni [16]): 128 µg/mL (≈ 174 µM)
MIC (Campylobacter jejuni [17]): 64 µg/mL (≈ 87.2 µM)
MIC (Campylobacter jejuni [18]): 128 µg/mL (≈ 174 µM)
MIC (Campylobacter jejuni [19]): 64 µg/mL (≈ 87.2 µM)
MIC (Campylobacter jejuni [20]): > 512 µg/mL
MIC (Campylobacter jejuni [21]): 32 µg/mL (≈ 43.6 µM)
MIC (Campylobacter jejuni [22]): 8 µg/mL (≈ 10.9 µM)
MIC (Campylobacter jejuni [23]): 8 µg/mL (≈ 10.9 µM)
MIC (Campylobacter jejuni [24]): 32 µg/mL (≈ 43.6 µM)
MIC (Campylobacter jejuni [25]): 64 µg/mL (≈ 87.2 µM)
MIC (Campylobacter jejuni [26]): 64 µg/mL (≈ 87.2 µM)
MIC (Campylobacter jejuni [27]): 16 µg/mL (≈ 21.8 µM)
MIC (Campylobacter jejuni [28]): 8 µg/mL (≈ 10.9 µM)
MIC (Campylobacter jejuni [29]): 32 µg/mL (≈ 43.6 µM)
MIC (Campylobacter jejuni [30]): 16 µg/mL (≈ 21.8 µM)
MIC (Campylobacter jejuni [31]): 256 µg/mL (≈ 349 µM)
MIC (Campylobacter jejuni [32]): 1 µg/mL (≈ 1.36 µM)
MIC (Campylobacter jejuni [33]): 8 µg/mL (≈ 10.9 µM)
MIC (Campylobacter jejuni [34]): 128 µg/mL (≈ 174 µM)
MIC (Campylobacter jejuni [35]): > 512 µg/mL
MIC (Campylobacter jejuni [36]): 64 µg/mL
MIC (Campylobacter jejuni [37]): 32 µg/mL (≈ 43.6 µM)
MIC (Campylobacter jejuni [38]): 128 µg/mL (≈ 174 µM)
